From patent US10092551B2, “Spiro-thiazolones” (Hoffmann-La Roche Inc., priority 2014, dated 2018)

biological target: human V1a receptor (Homo sapiens (Human), UniProt P37288); assay: human V1a receptor binding studies (3H-Vasopressin, SPA beads); details: membranes of HEK293 cells transiently transfected with human V1a receptor, Ki by Cheng-Prussoff
How it was run: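 Membranes from HEK293 cells transiently expressing cloned human V1a receptor, bound on yttrium silicate SPA beads with 4 nM 3H-vasopressin (added stock) and serially diluted compound, 1 h at room temperature. Non-specific binding defined with cold vasopressin; IC50 by non-linear regression, Ki via Cheng-Prusoff.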

Chain of human V1a receptor (P37288 whole entry): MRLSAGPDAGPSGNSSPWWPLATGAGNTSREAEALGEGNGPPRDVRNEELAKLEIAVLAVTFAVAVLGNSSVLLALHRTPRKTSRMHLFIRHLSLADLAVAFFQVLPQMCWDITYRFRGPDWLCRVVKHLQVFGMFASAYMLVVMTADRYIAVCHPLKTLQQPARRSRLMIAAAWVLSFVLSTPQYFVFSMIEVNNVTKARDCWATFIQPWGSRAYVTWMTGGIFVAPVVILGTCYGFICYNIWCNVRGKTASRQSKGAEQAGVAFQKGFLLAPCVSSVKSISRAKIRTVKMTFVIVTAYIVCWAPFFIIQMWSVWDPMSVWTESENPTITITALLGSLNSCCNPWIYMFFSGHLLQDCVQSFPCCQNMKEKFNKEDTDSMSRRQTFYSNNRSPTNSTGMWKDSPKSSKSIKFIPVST

Row | Compound | pKi hV1a
1 | C/C(=C1/SC(N2CCC3(CC2)OCc2ccccc23)=NC1=O)C1CCOCC1 [Example 78, (5E/Z)-2-(1′H,3H-spiro[2-benzofuran-1,4′-piperidin]-1′-yl)-5-[1-(tetrahydro-2H-pyran-4-yl)ethylidene]-1,3-thiazol-4(5H)-one] | 7.9
2 | O=C1N=C(N2CCC3(CC2)OCc2ccccc23)SC1=C(c1ccc(F)cc1)c1ccc(F)cc1 [Example 101, 5-[bis(4-fluorophenyl)methylidene]-2-(1′H,3H-spiro[2-benzofuran-1,4′-piperidin]-1′-yl)-1,3-thiazol-4(5H)-one] | 8.0
3 | O=C1N=C(N2CCC3(CC2)OCc2ccccc23)SC1=C(CCl)CCl [Example 113, 5-(1,3-dichloropropan-2-ylidene)-2-(1′H,3H-spiro[2-benzofuran-1,4′-piperidin]-1′-yl)-1,3-thiazol-4(5H)-one] | 7.0
4 | CC(C)(C)/C(=C1/SC(N2CCC3(CC2)OCc2ccccc23)=NC1=O)c1ccc(Cl)cc1 [Example 21, (5E/Z)-5-[1-(4-chlorophenyl)-2,2-dimethylpropylidene]-2-(1′H,3H-spiro[2-benzofuran-1,4′-piperidin]-1′-yl)-1,3-thiazol-4(5H)-one] | 7.9
5 | O=C1N=C(N2CCC3(CC2)OCc2ccccc23)SC1=C1CCOCC1 [Example 44, 2-(1′H,3H-spiro[2-benzofuran-1,4′-piperidin]-1′-yl)-5-(tetrahydro-4H-pyran-4-ylidene)-1,3-thiazol-4(5H)-one] | 8.1
6 | O=C1N=C(N2CCC3(CC2)OCc2ccccc23)S/C1=C1/CCCc2ccccc21 [Example 45, (5Z)-5-(3,4-dihydronaphthalen-1(2H)-ylidene)-2-(1′H,3H-spiro[2-benzofuran-1,4′-piperidin]-1′-yl)-1,3-thiazol-4(5H)-one] | 8.7
7 | O=C1N=C(N2CCC3(CC2)OC(=O)c2ccccc23)S/C1=C(\CO)c1ccc(Cl)nc1 [Example 147, 1′-{(5Z)-5-[1-(6-chloropyridin-3-yl)-2-hydroxyethylidene]-4-oxo-4,5-dihydro-1,3-thiazol-2-yl}-3H-spiro[2-benzofuran-1,4′-piperidin]-3-one] | 8.0
8 | O=C1N=C(N2CCC3(CC2)OCc2ccccc23)SC1=C(c1cccnc1)c1cccnc1 [Example 119, 5-[di(pyridin-3-yl)methylidene]-2-(1′H,3H-spiro[2-benzofuran-1,4′-piperidin]-1′-yl)-1,3-thiazol-4(5H)-one] | 7.6
9 | C/C(=C1\SC(N2CCC3(CC2)OCc2ccccc23)=NC1=O)c1ccccc1 [Example 152, (5E)-5-(1-phenylethylidene)-2-(1′H,3H-spiro[2-benzofuran-1,4′-piperidin]-1′-yl)-1,3-thiazol-4(5H)-one] | 9.0
10 | COC1CCCC/C1=C1/SC(N2CCC3(CC2)OCc2ncccc23)=NC1=O (stereo not drawn) [Example 164, (5E/Z)-5-(2-methoxycyclohexylidene)-2-(1′H,7H-spiro[furo[3,4-b]pyridine-5,4′-piperidin]-1′-yl)-1,3-thiazol-4(5H)-one] | 6.9
11 | O=C1N=C(N2CCC3(CC2)OCc2ccccc23)SC1=C1CCC1 [Example 75, 5-cyclobutylidene-2-(1′H,3H-spiro[2-benzofuran-1,4′-piperidin]-1′-yl)-1,3-thiazol-4(5H)-one] | 7.6
12 | C/C(=C1/SC(N2CCC3(CC2)OCc2ccccc23)=NC1=O)c1cnc[nH]1 [Example 117, (5E/Z)-5-[1-(1H-imidazol-5-yl)ethylidene]-2-(1′H,3H-spiro[2-benzofuran-1,4′-piperidin]-1′-yl)-1,3-thiazol-4(5H)-one] | 7.3
13 | O=C1N=C(N2CCC3(CC2)OCc2ccccc23)S/C1=C1/CCc2cc(Cl)ccc21 [Example 10, (5E/Z)-5-(5-chloro-2,3-dihydro-1H-inden-1-ylidene)-2-(1′H,3H-spiro[2-benzofuran-1,4′-piperidin]-1′-yl)-1,3-thiazol-4(5H)-one] | 6.9
14 | C/C(=C1/SC(N2CCC3(CC2)OC(=O)c2ccccc23)=NC1=O)c1ccccc1 [Example 156, 1′-[(5Z)-4-oxo-5-(1-phenylethylidene)-4,5-dihydro-1,3-thiazol-2-yl]-3H-spiro[2-benzofuran-1,4′-piperidin]-3-one] | 9.3
15 | CC/C(=C1\SC(N2CCC3(CC2)OCc2ccccc23)=NC1=O)c1ccc(Cl)cc1 [Example 25, (5E)-5-[1-(4-chlorophenyl)propylidene]-2-(1′H,3H-spiro[2-benzofuran-1,4′-piperidin]-1′-yl)-1,3-thiazol-4(5H)-one] | 8.2
16 | C/C(=C1/SC(N2CCC3(CC2)OCc2ccccc23)=NC1=O)c1cccc(Cl)c1 [Example 12, (5E/Z)-5-[1-(3-chlorophenyl)ethylidene]-2-(1′H,3H-spiro[2-benzofuran-1,4′-piperidin]-1′-yl)-1,3-thiazol-4(5H)-one] | 8.2
17 | CC/C(=C1/SC(N2CCC3(CC2)OCc2ccccc23)=NC1=O)c1ccc(Cl)nc1 [Example 133, (5Z)-5-[1-(6-chloropyridin-3-yl)propylidene]-2-(1′H,3H-spiro[2-benzofuran-1,4′-piperidin]-1′-yl)-1,3-thiazol-4(5H)-one] | 9.2
18 | C/C(=C1/SC(N2CCC3(CC2)OCc2ccccc23)=NC1=O)c1cccnc1Cl [Example 83, (5Z)-5-[1-(2-chloropyridin-3-yl)ethylidene]-2-(1′H,3H-spiro[2-benzofuran-1,4′-piperidin]-1′-yl)-1,3-thiazol-4(5H)-one] | 8.8
19 | C/C(=C1/SC(N2CCC3(CC2)OCc2ncccc23)=NC1=O)c1cccnc1 [Example 165, (5E/Z)-5-[1-(pyridin-3-yl)ethylidene]-2-(1′H,7H-spiro[furo[3,4-b]pyridine-5,4′-piperidin]-1′-yl)-1,3-thiazol-4(5H)-one] | 7.5
20 | [2H]C([2H])([2H])/C(=C1/SC(N2CCC3(CC2)OCc2ccccc23)=NC1=O)c1ccccc1 [Example 173, (5Z)-5-[1-phenyl(^2H3)ethylidene]-2-(1′H,3H-spiro[2-benzofuran-1,4′-piperidin]-1′-yl)-1,3-thiazol-4(5H)-one] | 8.8
21 | COc1ccc(/C(C)=C2\SC(N3CCC4(CC3)OCc3ccccc34)=NC2=O)cn1 [Example 85, (5E/Z)-5-[1-(6-methoxypyridin-3-yl)ethylidene]-2-(1′H,3H-spiro[2-benzofuran-1,4′-piperidin]-1′-yl)-1,3-thiazol-4(5H)-one] | 8.4
22 | C/C(=C1\SC(N2CCC3(CC2)OCc2ccccc23)=NC1=O)c1ccncc1 [Example 36, (5E)-5-[1-(pyridin-4-yl)ethylidene]-2-(1′H,3H-spiro[2-benzofuran-1,4′-piperidin]-1′-yl)-1,3-thiazol-4(5H)-one] | 7.5
23 | O=C1N=C(N2CCC3(CC2)OC(=O)c2ccccc23)S/C1=C(/CO)c1ccccc1 [Example 143, 1′-[(5E)-5-(2-hydroxy-1-phenylethylidene)-4-oxo-4,5-dihydro-1,3-thiazol-2-yl]-3H-spiro[2-benzofuran-1,4′-piperidin]-3-one] | 8.8
24 | O=C1N=C(N2CCC3(CC2)OCc2ccccc23)SC1=C(C1CC1)C1CC1 [Example 115, 5-(dicyclopropylmethylidene)-2-(1′H,3H-spiro[2-benzofuran-1,4′-piperidin]-1′-yl)-1,3-thiazol-4(5H)-one] | 8.9
25 | C/C(=C1\SC(N2CCC3(CC2)OC(=O)c2ccccc23)=NC1=O)c1ccccc1 [Example 157, 1′-[(5E)-4-oxo-5-(1-phenylethylidene)-4,5-dihydro-1,3-thiazol-2-yl]-3H-spiro[2-benzofuran-1,4′-piperidin]-3-one] | 7.8
26 | COC/C(C)=C1\SC(N2CCC3(CC2)OCc2ccccc23)=NC1=O [Example 50, (5E/Z)-5-(1-methoxypropan-2-ylidene)-2-(1′H,3H-spiro[2-benzofuran-1,4′-piperidin]-1′-yl)-1,3-thiazol-4(5H)-one] | 8.4
27 | O=C1N=C(N2CCC3(CC2)OCc2ccccc23)SC1=C1CCS(=O)(=O)CC1 [Example 60, 5-(1,1-dioxidotetrahydro-4H-thiopyran-4-ylidene)-2-(1′H,3H-spiro[2-benzofuran-1,4′-piperidin]-1′-yl)-1,3-thiazol-4(5H)-one] | 8.0
